Like-named read-outs stand apart in the source and are kept apart here. Blank lines part the entries; values can stand above or below the compound they belong to.
Tests used:
[1] = Nephelometry (compound aggregation); assay type: physicochemical
Protocol: Nephelometry was performed to determine the relative propensity of the inhibitor compounds to aggregate in solution, based on the light scattering properties of the molecular aggregates. Compound aggregation can lead to artifact inhibitory effects, thus confounding a study of mechanism of inhibition. Compounds were tested for aggregation in a 96-well plate format, final volume 200 μL, using the phosphatase activity assay buffer at pH 7.5 without added pNPP. […] Eight wells were used for blanks and for each compound concentration. Plates were analyzed at two separate gains to determine if the signals were at saturating levels. Progesterone was used as a positive control for compound aggregation. Data were collected using a BMG […] Plus, equipped with a 635 nm laser.

DUSP5 PD(WT) = biological target: T1, DUSP5 PD(WT) (Homo sapiens, UniProt Q16690); assay: DUSP5 PD(WT) in vitro phosphatase assay with pNPP as substrate; assay type: biochemical
T1 construct: The DUSP5 phosphatase domain (DUSP5 PD(WT)) gene was synthesized by Blue Heron; made in house
T1 sequence (Q16690 178-319 limits assumed): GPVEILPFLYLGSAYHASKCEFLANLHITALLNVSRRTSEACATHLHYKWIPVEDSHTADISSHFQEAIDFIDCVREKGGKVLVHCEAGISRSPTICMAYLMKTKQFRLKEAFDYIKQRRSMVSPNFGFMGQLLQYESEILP
Protocol: The DUSP5 phosphatase domain (DUSP5 PD(WT)) gene was synthesized by Blue Heron (Bothell, WA) and the protein expressed and purified as previously described. To measure the enzymatic activity of wild type phosphatase domain of DUSP5 {DUSP5 PD(WT)} and the inhibitory capacity of selected compounds, an in vitro phosphatase assay was utilized as previously described. Briefly, assays without and with inhibitors were performed in Greiner 96-well clear bottom plates with a total assay volume of 200 μL. The assay buffer contained 100 mM Tris, 100 mM NaCl, 5 mM MgCl2 • 6H2O and 1 mM dithiothreitol (DTT) at pH 7.5. p-nitrophenyl phosphate (pNPP, Sigma Aldrich) 5 mM was used as the substrate. DUSP5 PD(WT) dephosphorylates pNPP to yield p-nitrophenolate, which absorbs at 405 nm, having an extinction coefficient of 18,000 M^-1 cm^-1. The reaction was initiated by the addition of 4 μL of a 29 μM DUPSP5 PD(WT) enzyme stock and absorbance was monitored at 25 °C over time using a Spectramax M5 microplate reader (Molecular Devices). Blanks contained only buffer and pNPP. Negative controls (without inhibitor) contained assay buffer with pNPP and DUSP5 PD(WT).
Appropriate vehicles were added to the blank and negative control wells. A minimum of three replicate wells was run for each condition and at each inhibitor concentration. The replicate wells were averaged to give a single data point. The reaction was initiated upon addition of 4 μL of a 29 μM enzyme stock which was dispensed to each of the wells except the blanks utilizing a single channel pipette. The resulting DUSP5 PD(WT) concentration in the assay buffer was 0.58 μM. The plate was returned to the plate reader, shaken, and absorbance recorded at 25 °C every thirty seconds over a ten to sixty mins time course. In selected experiments the plate was returned to the plate reader following a 10 mins recording for one or two additional 10 mins absorbance recordings.
(§1) Initial rate values obtained from the plate reader were normalized to percent activity relative to the mean negative control rates. Graphpad Prism 6 software was utilized to calculate a non-linear regression (curve fit) using a variable slope model equation, constraining the top and bottom values to 100% activity and 0% activity, respectively, using the following equation:2 vi=Bottom+Top−Bottom/1+10^logIC50−x*HillSlope where v i is the initial rate.
To investigate the mechanism of DUSP5 PD(WT) inhibition by RR601, initial velocity inhibition profiles of RR601 were obtained in a 96-well plate format by measuring DUSP5 PD(WT) initial velocities in assay buffer containing of 1, 3, 9, 27 and 81 mM pNPP and 0, 3, 10, 30 and 75 μM RR601 at each pNPP concentration. Reactions were initiated by the addition of DUSP5 PD(WT) to a final concentration of 0.6 μM in each of the wells, excluding the blank. The data were fitted to a global competitive inhibition model (Graphpad Prism) using the following equation:3 vi=VmaxS/Km1+I/Ki+S where v is the initial velocity, V max the maximum velocity, K m the Michaelis constant, [S] the concentration of pNPP, [I] the concentration of RR601 and K i the inhibition constant.

GST-DUSP5 = biological target: T2, GST-DUSP5 (Homo sapiens, UniProt Q16690); assay: In vitro ERK dephosphorylation (pERK) western blot assay; assay type: biochemical; conditions: full-length GST-DUSP5, pERK as substrate; global fit of three experiments
T2 construct: this assay was done with full-length protein (containing both domains), and using pERK as substrate; made in house
T2 sequence (Q16690 1-384): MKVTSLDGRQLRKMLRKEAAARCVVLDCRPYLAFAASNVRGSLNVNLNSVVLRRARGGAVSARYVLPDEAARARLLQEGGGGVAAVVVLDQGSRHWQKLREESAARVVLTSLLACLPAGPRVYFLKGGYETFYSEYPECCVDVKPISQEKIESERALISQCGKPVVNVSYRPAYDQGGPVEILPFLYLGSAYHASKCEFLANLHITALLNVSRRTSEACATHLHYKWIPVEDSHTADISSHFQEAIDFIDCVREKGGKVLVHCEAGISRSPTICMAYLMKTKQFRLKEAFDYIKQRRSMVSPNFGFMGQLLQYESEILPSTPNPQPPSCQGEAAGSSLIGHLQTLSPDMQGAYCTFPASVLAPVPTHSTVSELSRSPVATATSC

PTP1B [2] = biological target: T3, PTP1B (Homo sapiens, UniProt P18031); assay: PTP1B in vitro phosphatase assay with pNPP; assay type: biochemical
T3 construct: purchased Creative Biomart
T3 sequence (P18031 1-435): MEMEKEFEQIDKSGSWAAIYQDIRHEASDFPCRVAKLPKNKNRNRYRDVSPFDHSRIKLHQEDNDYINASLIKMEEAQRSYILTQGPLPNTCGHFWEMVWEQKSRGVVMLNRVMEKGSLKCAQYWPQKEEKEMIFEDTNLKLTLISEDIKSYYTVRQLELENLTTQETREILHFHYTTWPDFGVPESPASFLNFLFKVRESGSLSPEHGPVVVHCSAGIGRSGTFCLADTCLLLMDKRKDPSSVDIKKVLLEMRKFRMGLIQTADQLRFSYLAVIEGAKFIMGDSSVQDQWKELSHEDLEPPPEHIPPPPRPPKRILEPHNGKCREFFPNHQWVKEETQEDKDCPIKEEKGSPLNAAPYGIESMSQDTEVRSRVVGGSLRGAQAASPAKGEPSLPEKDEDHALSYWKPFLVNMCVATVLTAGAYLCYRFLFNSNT
Protocol: To examine the capacity of RR601 to inhibit protein-tyrosine phosphatase 1B (PTP1B), (Creative Biomart), activity, an in vitro phosphatase assay was adapted from. Assays with and without inhibitor were performed in Corning 96-well clear bottom plates having a non-binding surface, with a total assay volume of 200 μL. The assay buffer contained 100 mM Tris, 100 mM NaCl, 1 mM EDTA at pH 7.0 and 2.2 mM pNPP as the substrate. […] The reaction was initiated upon addition of 4 μL of a 5.0 μM PTP1B stock, which was dispensed to each of the wells except the blanks using a single channel pipette. The resulting PTPB1 concentration in the assay buffer was 0.1 μM. […] Assays were performed in 96-well plates in a similar manner as reported above. The assay buffer contained 50 mM HEPES (pH 7.4), 2 mM EDTA, 3 mM DTT and 100 mM NaCl. An initial experiment was performed to determine the kinetic parameters of the SHP-2 enzyme. The reaction was initiated with the addition of 4 μL of a 0.35 μM stock SHP-2 enzyme into wells containing 0, 1, 3, 9, 27 and 81 μM pNPP. The SHP-2 assay concentration was 7 nM. Absorbance was recorded every 30 s over a ten minute assay period at a temperature of 25 °C (Additional file 1: Fig. S8). Initial velocities were fit to the Michaelis-Menten equation:1 v=VmaxS/Km+S where v is the initial velocity, V max the maximum velocity, K m the Michaelis constant, and [S] the pNPP concentration. […] Assay buffer contained 7.5 mM pNPP, roughly one-half the value of the Michaelis constant determined from the study above. Reactions were initiated with the addition of 4 μL SHP-2 enzyme, resulting in a final assay enzyme concentration of 7 nM.
as §1

SHP-2 = biological target: T4, SHP-2 (Homo sapiens, UniProt Q06124); assay: SHP-2 in vitro phosphatase assay with pNPP; assay type: biochemical
T4 construct: purchased Creative Biomart
T4 sequence (Q06124 1-593): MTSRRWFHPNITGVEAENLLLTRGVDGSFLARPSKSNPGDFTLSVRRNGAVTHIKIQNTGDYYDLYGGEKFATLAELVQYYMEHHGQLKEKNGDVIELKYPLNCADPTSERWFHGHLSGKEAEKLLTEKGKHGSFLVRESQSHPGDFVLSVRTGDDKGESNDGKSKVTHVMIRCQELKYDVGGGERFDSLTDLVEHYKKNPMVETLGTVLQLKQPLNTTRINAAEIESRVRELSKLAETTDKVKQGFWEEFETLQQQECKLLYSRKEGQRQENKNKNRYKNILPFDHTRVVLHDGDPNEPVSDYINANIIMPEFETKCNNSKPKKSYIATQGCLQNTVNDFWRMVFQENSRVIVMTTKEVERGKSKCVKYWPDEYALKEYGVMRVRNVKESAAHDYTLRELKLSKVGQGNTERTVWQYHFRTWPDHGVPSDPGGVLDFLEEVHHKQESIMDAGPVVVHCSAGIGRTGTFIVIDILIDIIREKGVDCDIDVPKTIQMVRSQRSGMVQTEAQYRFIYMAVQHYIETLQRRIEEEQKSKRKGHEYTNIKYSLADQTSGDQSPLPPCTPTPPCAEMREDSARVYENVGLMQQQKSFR
Text: as §1

SHP2 = tested on: SHP2; set-up: method as in PMID 16717135; conditions: read-out: IC50, SHP2 (reported); cited from earlier work
PTP1B [3] = biological target: T3, PTP1B; set-up: method as in PMID 16717135; conditions: read-out: IC50, PTP1B (reported); cited from earlier work

Compound: Nc1cccc2c(O)cc(S(=O)(=O)O)cc12 [RR535, 1-amino-5-naphthol-7-sulfonic acid]
Compound aggregation over the concentration range tested (nephelometry) ([1]; 1 to 300 μM, stocks stored in the dark or exposed to room light for seventeen days): little or no measurable aggregation

Concentration at which aggregation begins (nephelometry) ([1]; phosphatase assay buffer pH 7.5 without pNPP): approximately 100 μM
Compound: CC(=O)[C@H]1CC[C@H]2[C@@H]3CCC4=CC(=O)CC[C@]4(C)[C@H]3CC[C@]12C [progesterone, reference compound]

IC50 (DUSP5 PD(WT); MP Biomedicals and RR535 stocks exposed to light 90 days, RR601 freshly prepared, pNPP, ± SE, read-out: DUSP5 PD(WT) inhibitor IC50, assay reaction period 15 – 25 min): 36.5 ± 1.5 µM
Vmax of DUSP5 PD(WT), Lineweaver-Burk (DUSP5 PD(WT); in the presence of 3 µM RR601): 0.54 µM/min
Vmax of DUSP5 PD(WT), Lineweaver-Burk (DUSP5 PD(WT); in the presence of 10 µM RR601): 0.61 µM/min
Vmax of DUSP5 PD(WT), Lineweaver-Burk (DUSP5 PD(WT); in the presence of 30 µM RR601): 0.62 µM/min
Vmax of DUSP5 PD(WT), Lineweaver-Burk (DUSP5 PD(WT); in the presence of 75 µM RR601): 0.69 µM/min
Mechanism of DUSP5 PD(WT) inhibition (DUSP5 PD(WT); initial velocity studies varying pNPP and RR601): competitive inhibitor
IC50 (DUSP5 PD(WT); pNPP substrate, read-out: IC50, DUSP5 PD(WT) (summary value)): 36 µM
IC50 (DUSP5 PD(WT); read-out: DUSP5 PD(WT) inhibitor IC50, assay reaction period 0 – 10 min, MP Biomedicals and RR535 stocks exposed to light 90 days, RR601 freshly prepared, pNPP, ± SE): 36.9 ± 3.9 µM
IC50 (DUSP5 PD(WT); read-out: DUSP5 PD(WT) inhibitor IC50, assay reaction period 30 – 40 min, MP Biomedicals and RR535 stocks exposed to light 90 days, RR601 freshly prepared, pNPP, ± SE): 34.5 ± 1.4 µM
IC50 (GST-DUSP5): 4.8 µM
IC50 (PTP1B [2]; pNPP 2.2 mM, 10 min recording, ± SE, read-out: IC50, PTP1B): 2.1 ± 0.2 µM
Selectivity for PTP1B versus DUSP5 (PTP1B [2]; ratio of IC50 values): 18 fold
Ki (SHP-2; 1-30 mM pNPP, 0-3.0 µM RR601, ± SE, read-out: Ki, SHP-2, global competitive model fit): 0.38 ± 0.05 µM
IC50 (SHP-2; pNPP 7.5 mM, 10 min reaction, ± SE): 1.1 ± 0.1 µM
Compound: O=S(=O)(O)c1cc(O)c2cccc(/N=N/c3cccc4c(O)cc(S(=O)(=O)O)cc34)c2c1 [RR601]
Mechanism of SHP-2 inhibition (SHP-2; substrate concentrations less than 30 mM): fit best to a competitive inhibition model

IC50, DUSP5 PD(WT) (DUSP5 PD(WT); pNPP, at 60 minutes, 0.1 to 300 μM): did not inhibit
IC50 (DUSP5 PD(WT); pNPP, at 60 minutes, 0.1 to 300 μM, read-out: IC50, DUSP5 PD(WT)): > 3000 µM
Inhibition of PTP1B activity, initially (PTP1B [2]; 0.1 to 300 μM, start of assay): did not initially inhibit
IC50 (PTP1B [2]; pNPP, continuous monitoring over 60 min, read-out: IC50, PTP1B, after 50 mins of the reaction assay): 723 ± 302 µM
IC50 (PTP1B [2]; pNPP, continuous monitoring over 60 min, read-out: IC50, PTP1B, after 60 mins of the reaction assay): 337 ± 130 µM
Compound: O=S(=O)(O)c1ccc2cc(N=Nc3cc(S(=O)(=O)O)c4cccnc4c3O)ccc2c1 [NSC-87877]
IC50 (PTP1B [3]): 1.7 µM

From publication PMC5452347, “Serendipitous discovery of light-induced (In Situ) formation of an Azo-bridged dimeric sulfonated naphthol as a potent PTP1B inhibitor” (BMC Biochemistry, 2017)
